Measured values published in patent US20020137929A1, “1 - (3-heterocyclylphenyl) isothiourea, -isourea, -guanidine and -amidine herbicidal agents” (Intellectual Property Department, BASF Aktiengesellschaft, priority 1998, published 2002).

Experiments:
[1] = system: TRZAWR (Wheat, Winter, cv Riband); assay: Preemergence herbicidal evaluation; type: in vivo, Triticum aestivum; details: rated 4-5 weeks after treatment
Description: (§1) Results of herbicide evaluation are expressed on a rating scale (0-9). The scale is based upon a visual observation of plant stand, vigor, malformation, size, chlorosis and overall plant appearance as compared with a control.
(§2) The preemergence herbicidal activity of the test compounds of the present invention is exemplified by the following tests in which the seeds of a variety of monocotyledonous and dicotyledonous plants are separately mixed with potting soil and planted on top of approximately one inch of soil in separate pint cups. After planting, the cups are sprayed with the selected aqueous acetone solution containing test compound in sufficient quantity to provide the equivalent of about 0.0156 to 0.500 kg per hectare of test compound per cup. The treated cups are then placed on greenhouse benches, watered and cared for in accordance with conventional greenhouse procedures. From four to five weeks after treatment, the tests are terminated and each cup is examined and rated according to the rating system provided in Example 37.
(§3) The compounds evaluated are reported by compound number given in Example 37.

[2] = system: ECHCG (Barnyardgrass); assay: Preemergence herbicidal evaluation; type: in vivo, Echinochloa crus-galli; details: rated 4-5 weeks after treatment
Description: as §1, §2, §3

[3] = system: IPOHE (Morningglory, Ivyleaf); assay: Postemergence herbicidal evaluation; type: in vivo, Ipomoea hederacea; details: postemergence
In short: (§4)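 Herbicidal effect was judged by eye on a 0–9 scale covering stand, vigor, deformity, size and chlorosis, compared with controls, four to five weeks after seedlings about two weeks old were sprayed (40 psi, ~0.0156–0.500 kg/ha).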

[4] = system: ORYSAT (Rice, Tebonnet); assay: Preemergence herbicidal evaluation; type: in vivo, Oryza sativa, (L.) Tebonnet; details: rated 4-5 weeks after treatment
Description: as §1, §2, §3

[5] = system: TRZAWR (Wheat, Winter, cv Riband); assay: Postemergence herbicidal evaluation; type: in vivo, Triticum aestivum; details: postemergence
In short: as §4

[6] = system: SETVI (Foxtail, Green); assay: Preemergence herbicidal evaluation; type: in vivo, Setaria viridis; details: rated 4-5 weeks after treatment
In short: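 Test compound, dissolved in aqueous acetone, was sprayed over planted soil cups at an equivalent of about 0.0156 to 0.500 kg/ha; seeds had been mixed with potting soil. Greenhouse growth followed, with visual 0-9 scoring of injury at four to five weeks.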

[7] = system: MOOVA (Monochoria); assay: Preemergence weed control under flooded paddy conditions; type: in vivo, Monochoria vaginalis; details: rated 3-4 weeks after treatment
In short: (§5)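 Ratings on a 0-9 visual scale cover stand, vigor, malformation, size, chlorosis and overall appearance relative to a control, taken three to four weeks post-treatment. Application was into flood water over freshly sown silt loam at roughly 0.0313 to 0.500 kg/ha.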

[8] = system: ABUTH (Velvetleaf); assay: Postemergence herbicidal evaluation; type: in vivo, Abutilon theophrasti; details: postemergence
In short: as §4

[9] = system: CHEAL (Lambsquarters, Common); assay: Preemergence herbicidal evaluation; type: in vivo, Chenopodium album; details: rated 4-5 weeks after treatment
Description: as §1, §2, §3

[10] = system: ECHORC (Watergrass (Calif.)); assay: Preemergence weed control under flooded paddy conditions; type: in vivo, Echinochloa oryzoides; details: rated 3-4 weeks after treatment
In short: as §5

[11] = system: IPOHE (Morningglory, Ivyleaf); assay: Preemergence herbicidal evaluation; type: in vivo, Ipomoea hederacea; details: rated 4-5 weeks after treatment
Description: as §1, §2, §3

Cn1c(C(F)(F)F)cc(=O)n(-c2cc(N=C3SCC(=O)N3CC(F)(F)F)c(Cl)cc2F)c1=O [Compound 163, 3-{4-Chloro-2-fluoro-5-{[4-oxo-3-(2,2,2-trifluoroethyl)-2-thiazolidinylidene]amino}phenyl}-1-methyl-6-(trifluoromethyl)-2,4(1H,3H)-pyrimidinedione]
Preemergence herbicidal rating TRZAWR ([1]; 0.0156 kg/ha): 0.0
Preemergence herbicidal rating TRZAWR ([1]; 0.0313 kg/ha): 0.0
Preemergence herbicidal rating TRZAWR ([1]; 0.0625 kg/ha): 3.0
Preemergence herbicidal rating TRZAWR ([1]; 0.1250 kg/ha): 7.0
Preemergence herbicidal rating TRZAWR ([1]; 0.2500 kg/ha): 7.0
Preemergence herbicidal rating ECHCG ([2]; 0.0156 kg/ha): 2.0
Preemergence herbicidal rating ECHCG ([2]; 0.0313 kg/ha): 4.0
Preemergence herbicidal rating ECHCG ([2]; 0.0625 kg/ha): 7.0
Preemergence herbicidal rating ECHCG ([2]; 0.1250 kg/ha): 8.0
Preemergence herbicidal rating ECHCG ([2]; 0.2500 kg/ha): 9.0
herbicidal rating IPOHE ([3]; rate 0.0156 kg/ha): 9.0
herbicidal rating IPOHE ([3]; rate 0.0313 kg/ha): 9.0
herbicidal rating IPOHE ([3]; rate 0.0625 kg/ha): 9.0
Preemergence herbicidal rating ORYSAT ([4]; 0.0156 kg/ha): 1.0
Preemergence herbicidal rating ORYSAT ([4]; 0.0313 kg/ha): 3.0
Preemergence herbicidal rating ORYSAT ([4]; 0.0625 kg/ha): 5.0
Preemergence herbicidal rating ORYSAT ([4]; 0.1250 kg/ha): 7.0
Preemergence herbicidal rating ORYSAT ([4]; 0.2500 kg/ha): 8.0
herbicidal rating TRZAWR ([5]; rate 0.0156 kg/ha): 3.5
herbicidal rating TRZAWR ([5]; rate 0.0313 kg/ha): 4.0
herbicidal rating TRZAWR ([5]; rate 0.0625 kg/ha): 4.5
Preemergence herbicidal rating SETVI ([6]; 0.0156 kg/ha): 9.0
Preemergence herbicidal rating SETVI ([6]; 0.0313 kg/ha): 9.0
Preemergence herbicidal rating SETVI ([6]; 0.0625 kg/ha): 9.0
Preemergence herbicidal rating SETVI ([6]; 0.1250 kg/ha): 9.0
Preemergence herbicidal rating SETVI ([6]; 0.2500 kg/ha): 9.0
herbicidal effect rating, MOOVA ([7]; 0.0313 kg/ha): 9.0
herbicidal effect rating, MOOVA ([7]; 0.0625 kg/ha): 9.0
herbicidal effect rating, MOOVA ([7]; 0.1250 kg/ha): 9.0
herbicidal effect rating, MOOVA ([7]; 0.2500 kg/ha): 9.0
herbicidal rating ABUTH ([8]; rate 0.0156 kg/ha): 9.0
herbicidal rating ABUTH ([8]; rate 0.0313 kg/ha): 9.0
herbicidal rating ABUTH ([8]; rate 0.0625 kg/ha): 9.0
Preemergence herbicidal rating CHEAL ([9]; 0.0156 kg/ha): 9.0
Preemergence herbicidal rating CHEAL ([9]; 0.0313 kg/ha): 9.0
Preemergence herbicidal rating CHEAL ([9]; 0.0625 kg/ha): 9.0
Preemergence herbicidal rating CHEAL ([9]; 0.1250 kg/ha): 9.0
Preemergence herbicidal rating CHEAL ([9]; 0.2500 kg/ha): 9.0
herbicidal effect rating, ECHORC ([10]; 0.0313 kg/ha): 9.0
herbicidal effect rating, ECHORC ([10]; 0.0625 kg/ha): 9.0
herbicidal effect rating, ECHORC ([10]; 0.1250 kg/ha): 9.0
herbicidal effect rating, ECHORC ([10]; 0.2500 kg/ha): 9.0
Preemergence herbicidal rating IPOHE ([11]; 0.0156 kg/ha): 0.0
Preemergence herbicidal rating IPOHE ([11]; 0.0313 kg/ha): 0.0
Preemergence herbicidal rating IPOHE ([11]; 0.0625 kg/ha): 3.0
Preemergence herbicidal rating IPOHE ([11]; 0.1250 kg/ha): 9.0
Preemergence herbicidal rating IPOHE ([11]; 0.2500 kg/ha): 9.0

C=CCN1C(=O)C(CC(=O)NO)SC1=Nc1cc(-n2c(=O)cc(C(F)(F)F)n(C)c2=O)c(F)cc1Cl (stereo not drawn) [Compound 161, 3-Allyl-2-{{2-chloro-5-[3,6-dihydro-3-methyl-2,6-dioxo-4-(trifluoromethyl)-1(2H)-pyrimidinyl]-4-fluorophenyl}imino}-4-oxo-5-thiazolidineacetohydroxamic acid]
Preemergence herbicidal rating TRZAWR ([1]; 0.0156 kg/ha): 0.0
Preemergence herbicidal rating TRZAWR ([1]; 0.0313 kg/ha): 0.0
Preemergence herbicidal rating TRZAWR ([1]; 0.0625 kg/ha): 1.0
Preemergence herbicidal rating TRZAWR ([1]; 0.1250 kg/ha): 4.0
Preemergence herbicidal rating TRZAWR ([1]; 0.2500 kg/ha): 7.0
Preemergence herbicidal rating TRZAWR ([1]; 0.5000 kg/ha): 9.0
Preemergence herbicidal rating ECHCG ([2]; 0.0156 kg/ha): 0.0
Preemergence herbicidal rating ECHCG ([2]; 0.0313 kg/ha): 0.0
Preemergence herbicidal rating ECHCG ([2]; 0.0625 kg/ha): 0.0
Preemergence herbicidal rating ECHCG ([2]; 0.1250 kg/ha): 4.0
Preemergence herbicidal rating ECHCG ([2]; 0.2500 kg/ha): 7.0
Preemergence herbicidal rating ECHCG ([2]; 0.5000 kg/ha): 9.0
herbicidal rating IPOHE ([3]; rate 0.0156 kg/ha): 1.0
herbicidal rating IPOHE ([3]; rate 0.0313 kg/ha): 3.0
herbicidal rating IPOHE ([3]; rate 0.0625 kg/ha): 9.0
herbicidal rating IPOHE ([3]; rate 0.1250 kg/ha): 9.0
Preemergence herbicidal rating ORYSAT ([4]; 0.0156 kg/ha): 0.0
Preemergence herbicidal rating ORYSAT ([4]; 0.0313 kg/ha): 1.0
Preemergence herbicidal rating ORYSAT ([4]; 0.0625 kg/ha): 7.0
Preemergence herbicidal rating ORYSAT ([4]; 0.1250 kg/ha): 7.0
Preemergence herbicidal rating ORYSAT ([4]; 0.2500 kg/ha): 9.0
Preemergence herbicidal rating ORYSAT ([4]; 0.5000 kg/ha): 9.0
herbicidal rating TRZAWR ([5]; rate 0.0156 kg/ha): 2.5
herbicidal rating TRZAWR ([5]; rate 0.0313 kg/ha): 3.5
herbicidal rating TRZAWR ([5]; rate 0.0625 kg/ha): 4.0
herbicidal rating TRZAWR ([5]; rate 0.1250 kg/ha): 4.5
Preemergence herbicidal rating SETVI ([6]; 0.0156 kg/ha): 0.0
Preemergence herbicidal rating SETVI ([6]; 0.0313 kg/ha): 0.0
Preemergence herbicidal rating SETVI ([6]; 0.0625 kg/ha): 7.0
Preemergence herbicidal rating SETVI ([6]; 0.1250 kg/ha): 9.0
Preemergence herbicidal rating SETVI ([6]; 0.2500 kg/ha): 9.0
Preemergence herbicidal rating SETVI ([6]; 0.5000 kg/ha): 9.0
herbicidal effect rating, MOOVA ([7]; 0.0313 kg/ha): 7.0
herbicidal effect rating, MOOVA ([7]; 0.0625 kg/ha): 7.0
herbicidal effect rating, MOOVA ([7]; 0.1250 kg/ha): 7.0
herbicidal effect rating, MOOVA ([7]; 0.2500 kg/ha): 9.0
herbicidal rating ABUTH ([8]; rate 0.0156 kg/ha): 0.0
herbicidal rating ABUTH ([8]; rate 0.0313 kg/ha): 5.0
herbicidal rating ABUTH ([8]; rate 0.0625 kg/ha): 7.0
herbicidal rating ABUTH ([8]; rate 0.1250 kg/ha): 9.0
Preemergence herbicidal rating CHEAL ([9]; 0.0156 kg/ha): 6.0
Preemergence herbicidal rating CHEAL ([9]; 0.0313 kg/ha): 7.0
Preemergence herbicidal rating CHEAL ([9]; 0.0625 kg/ha): 9.0
Preemergence herbicidal rating CHEAL ([9]; 0.1250 kg/ha): 9.0
Preemergence herbicidal rating CHEAL ([9]; 0.2500 kg/ha): 9.0
Preemergence herbicidal rating CHEAL ([9]; 0.5000 kg/ha): 9.0
herbicidal effect rating, ECHORC ([10]; 0.0313 kg/ha): 0.0
herbicidal effect rating, ECHORC ([10]; 0.0625 kg/ha): 0.0
herbicidal effect rating, ECHORC ([10]; 0.1250 kg/ha): 2.0
herbicidal effect rating, ECHORC ([10]; 0.2500 kg/ha): 4.0
Preemergence herbicidal rating IPOHE ([11]; 0.0313 kg/ha): 2.0
Preemergence herbicidal rating IPOHE ([11]; 0.0625 kg/ha): 7.0
Preemergence herbicidal rating IPOHE ([11]; 0.1250 kg/ha): 9.0
Preemergence herbicidal rating IPOHE ([11]; 0.2500 kg/ha): 9.0
Preemergence herbicidal rating IPOHE ([11]; 0.5000 kg/ha): 9.0
